Columns and labels:
[1] = system: primary vaginal smooth muscle cells; assay: Fastin assay for elastin (tropoelastin and surface deposited elastin production); type: cell-based, human; conditions: for tropoelastin production normalized to cell number (% of control) / cell culture surface deposited elastin production normalized to cell number (% of control): mean±SD; for vaginal smooth muscle cell elastin production (in words): cell cultures of the vagina from women who have undergone a hysterectomy; for cell culture surface deposited elastin production normalized to cell number (% of control): 48 hours of treatment
Method: After removal of the uterus, full-thickness samples of the anterior vaginal wall were obtained from the vaginal cuff at the anterior midline portion under sterile condition from four women without POP. Specimens were preserved in cold DMEM/F12 (Invitrogen, Carlsbad, Calif.) supplemented with 10% FBS, 1 mM glutamine, 0.075% Na2HCO3 and 100 ug/ml penicillin-streptomycin. After a maximum time of 4 hours from tissue harvesting the tissue was mechanically minced in cold cultured media and the fragments were washed 3 times in PBS and were plated onto fibronectin coated plastic dishes (Thermo Fischer Scientific, Rochester, N.Y.). After the initial outgrowth, clones with a morphology resembling the smooth muscle phenotype were patch cloned and propagated in culture. For cell characterization a 5000 cell/well fibronectin coated 8-well chamber slide was plated. Once cell confluence reached 80% the cells were washed twice with PBS and fixed in 4% PFA for 30 min at 37° C. To verify the intracytoplasmic distribution of F-actin fibers 4% PFA fixed cells were exposed to a permeabilizing solution of Tryton X100 0.1% and Rhodamine Phalloidin for 45 min at 37° C. Slides were then treated with mounting media (Vectashield, Vector Laboratories, Burlingame, Calif.) containing DAPI for nucleic acid staining and image acquisition was performed in glycerol immersion by confocal microscopy. In addition, the 8-well chamber slides were used to carry out the immunocytochemical staining. After blockage of endogenous peroxidase activity with a solution of hydrogen peroxide and methanol, slides were sequentially treated with the primary mouse antibody, biotinylated anti-mouse immunoglobulin, and Streptavidin-biotin-peroxidase complex (LSAB™+/HRP kit, Dako, Carpinteria, Calif.). Diaminobenzidine was used as a chromogen in the presence of hydrogen peroxide. Slides were then counterstained with hematoxylin. All reactions were carried out at room temperature (22° C.). To identify the SMC, anti-smooth muscle actin antibodies were used (monoclonal mouse, 1:250, 30 min incubation, clone 1A4, catalog #0851 Dako, Carpinteria, Calif.). Caldesmon expression was studied with a monoclonal mouse antibody, 1:100, 30 min incubation, (clone h-CD catalog #M3557 Dako, Carpinteria, Calif.). An antigen retrieval step was used for caldesmon using citrate buffer and a steamer for 30 min. As a negative control normal mouse serum was substituted for the antibody.
SMC from the fourth to sixth passages (5,000 cells per well) were cultured in 96-well or 6-well culture plates (Costar, Cambridge, Mass.), in a total volume of 200 μL or 2 mL DMEM/F-12 with 10% FBS and were grown to near confluence. Cells were incubated with zinc sulfate (10 μM, 20 μM), GW501516 (1 nM, 10 nM, 100 nM) or zinc sulfate with GW 501516 (20 μM with 10 nM) in 96-well plates with serum free DMEM/F-12. Treatment and control groups were performed in 6 replicate wells. Supernatants and cell lysates were collected 24 or 48 hrs after the initiation of treatment. Supernatants and cell lysates were treated with the Fastin Elastin Assay kit (Biocolor Ltd, UK) as recommended by the manufacturer. The Fastin Elastin Assay is a quantitative dye-binding method for the analysis of elastins extracted from biological materials. The dye label employed is 5, 10, 15, 20-tetraphenyl-21, 23-porphine tetra-suffocated (TPPS). The dye reagent binds to the ‘basic’ and ‘non-polar’ amino acid sequences found in mammalian elastins. Recovered dye-bound elastin from each sample and standard was read in a 96-well plate at 513 nm. All measurements were performed in quadruplicate. The measured elastin protein amounts were normalized to corresponding cell numbers to provide a reliable basis of comparison between samples.

[2] = system: rat vaginal Col1a1, Col3a1, Col5a1 mRNA; assay: qRT-PCR of vaginal collagen gene expression after 2 weeks vaginal suppositories; type: in vivo; conditions: OVX rats, vaginal suppositories 2 weeks, mean±SD; for ratio of vaginal Col1a1 to Col3a1 mRNA expression: placebo 0.78±0.2; for ratio of vaginal Col1a1 to Col5a1 mRNA expression: placebo 4.3±1.9
Source text: Ten to 12-weeks old female ovariectomized (OVX) Sprague-Dawley rats were utilized for the experiments. The animals were acclimatized to the environmental conditions before starting the experiment. The animals were housed individually and were allowed free access to water and rodent food. Two weeks after the ovariectomy rats (n=36) were divided into five groups: control (receiving placebo suppositories, n=8), Zinc (receiving zinc sulfate containing suppositories, n=8), GW (receiving GW501516 containing suppositories, n=8), Zinc with GW (receiving Zinc with GW 501516 containing suppositories, n=8) and Estradiol (receiving estradiol containing suppositories, n=4).
The suppositories were prepared according to the fusion method, using a polypeg suppository base (MEDISCA, N.Y., USA). […] Using a microwave, the suppository base was melted in a small beaker for 3 min and then transferred and kept into a water bath at a temperature of 55° C. The proper amount of above reagent was added to the liquefied base and meticulously crushed with a smooth rounded-end glass rod for about 20 min to make the solution to be even and clear. A pipette tip was used to suck some amount of solution and push it into a plastic tube with a diameter of 3.5 mm, and the tube was immediately left on the flat surface of an ice bucket. The suppository turned to white in color when it was solid. The moulded suppository was then pushed out of the tube using a round rod. The moulded suppository was cut using a razor blade to a length of 1.2 cm each, which was calibrated to equal a volume of 50±5 μl per each suppository. After 30 min of cooling at room temperature, the suppositories were stored at 4° C. in a closed chamber until use. They were left to reach room temperature before use.
The day after the last treatment the rats were overnight fasted and then sacrificed. Macroscopic measurement (genital hiatus, vaginal length) were taken and the vagina was dissected out carefully to avoid any injury to the vagina. The mid section of the vagina was utilized for histology (H and E stain, Masson's trichrome stain) and immunofluorescence and the rest of the vagina was used for RNA extraction and RT-PCR.
Total RNA was isolated from 20 mg of vaginal rat tissue in each experimental rat group using the RNeasy Mini kit (Qiagen) according to the manufacturer's specifications. For each total RNA preparation, DNase digestion was performed to remove contaminating genomic DNA. Total RNA samples from each tissue were quantified and evaluated for RNA integrity by the Agilent Bioanalyzer 2100 (Applied Biosystems, Foster City Calif., USA). Following RNA extraction, cDNA was reverse transcribed from ˜500 ng of each total RNA preparation using the qScript cDNA synthesis kit (Quanta Biosciences, Gaithersburg Md., USA). Finally, cDNA samples were used to perform gene expression analysis by qRT-PCR using SYBR Green technology on the RealPlex EP Mastercycler (Eppendorf, Germany) of five genes with known roles in vaginal tissue reconstruction: Collagen IaI (col 1a1), Collagen IIIaI (col 3a1), Collagen VaI (col 5a1), Elastin (eln), Tensin I (tns-1). Glyceraldehyde-3 Phosphate Dehydrogenase (gapdh) was used as a positive control to normalize the expression of each gene. Each qRT-PCR reaction was run in triplicate using Perfecta SYBR Green Supermix (Quanta Biosciences, Gaithersburg Md., USA) in 25 μL reaction volumes using a final concentration of 300 nM forward and reverse primers. For each of the genes analyzed in this study, primers were designed using Primer-BLAST software (NCBI) and synthesized by IDT Technologies (San Diego, Calif.).

| Compound | tropoelastin production normalized to cell number (% of control) ([1]; 10 μM, 48 hrs of culture) | tropoelastin production normalized to cell number (% of control) ([1]; 20 μM, 48 hrs of culture) | vaginal smooth muscle cell elastin production (in words) [1] | cell culture surface deposited elastin production normalized to cell number (% of control) ([1]; zinc sulfate 10 μM) | cell culture surface deposited elastin production normalized to cell number (% of control) ([1]; zinc sulfate 20 μM) | ratio of vaginal Col1a1 to Col3a1 mRNA expression [2] [relative units] | ratio of vaginal Col1a1 to Col5a1 mRNA expression [2] [relative units] | tropoelastin production normalized to cell number (% of control) ([1]; 1 nM, 24 hrs of culture) | tropoelastin production normalized to cell number (% of control) ([1]; 10 nM, 24 hrs of culture) | tropoelastin production normalized to cell number (% of control) ([1]; 100 nm, 24 hrs of culture) | cell culture surface deposited elastin production normalized to cell number (% of control) ([1]; GW 10 nM) | cell culture surface deposited elastin production normalized to cell number (% of control) ([1]; GW 100 nM) |
| --- | --- | --- | --- | --- | --- | --- | --- | --- | --- | --- | --- | --- |
| O.O.O.O.O.O.O.O=S(=O)([O-])[O-].[Zn+2] [zinc sulfate, zinc sulfate heptahydrate] | 113.3±11 % of control | 117±8.9 % of control | significantly increased | 114.7±6 % of control | 118.0±25 % of control | 0.95±0.1 | 9.7±2.5 |  |  |  |  |  |
| Cc1cc(SCc2sc(-c3ccc(C(F)(F)F)cc3)nc2C)ccc1OCC(=O)O [GW501516, 2-[2-methyl-4-([4-methyl-2-[4-(trifluoromethyl)phenyl)-1,3-thiazol-5-yl]methylsulfanyl]phenoxy]acetic acid] |  |  | significantly increase |  |  | 1.0±0.2 | 8.8±3.0 | 106.6±16 % of control | 120.5±16 % of control | 146.7±11 % of control | 108.2±6 % of control | 112.2±16 % of control |
